Measurements as given in patent publication US20230263822A1, “MODULATION OF FACTOR 11 EXPRESSION” (Ionis Pharmaceuticals, Inc., priority 2008, published 2023).
Strand notation (5' to 3'): a small letter for the sugar, then the base; units joined by * are phosphorothioate-linked, units joined directly phosphodiester-linked; [ ] holds rarer units or linkages, { } end groups; capitals alone tell only the bases. e = 2'-O-(2-methoxyethyl) (MOE); [5mC] = 5-methylcytosine; d = 2'-deoxy (DNA)

Legend:
[1] = Hematology assays in cynomolgus monkeys (Example 46); type: in vivo
Method: (§1) Groups, each consisting of two male and two female monkeys, were injected subcutaneously with 25 mg/kg of ISIS 416850, ISIS 449709, ISIS 445522, ISIS 449710, ISIS 449707, ISIS 449711, ISIS 449708, 416858, and ISIS 445531. Antisense oligonucleotide was administered to the monkeys at 25 mg/kg three times per week for week 1 and 25 mg/kg twice per week for weeks 2 to 8. A control group, consisting of two male and two female monkeys was injected subcutaneously with PBS according to the same dosing regimen. Body weights were taken 14 days and 7 days before the start of treatment and were then measured weekly throughout the treatment period. Blood samples were collected 14 days and 5 days before the start of treatment and subsequently several times during the dosing regimen for PT and aPTT measurements, and measurement of various hematologic factors. On day 55, the monkeys were euthanized by exsanguination while under deep anesthesia, and organs harvested for further analysis.

[2] = system: IL-1β, IL-6, IFN-γ, TNF-α, IL-8, MIP-1α, MCP-1, MIP-1β, RANTES; test: Cytokine and chemokine assays in cynomolgus monkeys (Example 46); type: in vivo
Method: as §1
Blood samples obtained from all monkey groups were sent to Pierce Biotechnology (Woburn, Mass.) for measurements of chemokine and cytokine levels. Levels of IL-1β, IL-6, IFN-γ, and TNF-α were measured using the respective primate antibodies and levels of IL-8, MIP-1α, MCP-1, MIP-1β and RANTES were measured using the respective cross-reacting human antibodies. Measurements were taken 14 days before the start of treatment and on day 55, when the monkeys were euthanized.

[3] = day-14 (before start of treatment)

**Q.** For “ISIS 449710: 3-8-3, 4-8-4, 2-10-2, 3-10-3 or 4-10-4 MOE microwalk gapmer (Table 46) (antisense e[5mC]*eA*e[5mC]*dA*dG*dT*dT*dT*d[5mC]*dT*dG*dG*d[5mC]*eA*eG*eG)”, which HCT ([1]; Day 17) is on record?
**A.** 43%

**Q.** And the MCH ([1]; Day 17)?
**A.** 23.1 pg

**Q.** And the MCHC ([1]; Day 17)?
**A.** 30.7 g/dL

**Q.** What about the MCV ([1]; Day 17) of the same substance?
**A.** 75 fL

**Q.** What about the RBC count ([1]; Day 17) of the same substance?
**A.** 5.8e+06 µL⁻¹

**Q.** What about the WBC count ([1]; Day 17) of the same substance?
**A.** 12000 µL⁻¹

**Q.** And the hemoglobin content ([1]; Day 17)?
**A.** 13.4 g/dL

**Q.** And the monocytes ([1]; Day 17)?
**A.** 2.5%

**Q.** And the neutrophils ([1]; Day 17)?
**A.** 80%

**Q.** And the platelet count ([1]; Day 17)?
**A.** 382 ×100/μL

**Q.** What about the HCT ([1]; Day 31) of the same substance?
**A.** 44%

**Q.** And the MCH ([1]; Day 31)?
**A.** 22.6 pg

**Q.** What about the MCHC ([1]; Day 31) of the same substance?
**A.** 30.1 g/dL

**Q.** And the MCV ([1]; Day 31)?
**A.** 75 fL

**Q.** What about the RBC count ([1]; Day 31) of the same substance?
**A.** 5.8e+06 µL⁻¹

**Q.** What about the WBC count ([1]; Day 31) of the same substance?
**A.** 12000 µL⁻¹

**Q.** And the hemoglobin content ([1]; Day 31)?
**A.** 13.1 g/dL

**Q.** And the monocytes ([1]; Day 31)?
**A.** 2.4%

**Q.** What about the neutrophils ([1]; Day 31) of the same substance?
**A.** 94%

**Q.** What about the platelet count ([1]; Day 31) of the same substance?
**A.** 422 ×100/μL

**Q.** And the HCT ([1]; Day 45)?
**A.** 43%

**Q.** What about the MCH ([1]; Day 45) of the same substance?
**A.** 21.8 pg

**Q.** What about the MCHC ([1]; Day 45) of the same substance?
**A.** 30.4 g/dL

**Q.** And the MCV ([1]; Day 45)?
**A.** 75 fL

**Q.** What about the RBC count ([1]; Day 45) of the same substance?
**A.** 5.7e+06 µL⁻¹

**Q.** What about the WBC count ([1]; Day 45) of the same substance?
**A.** 11000 µL⁻¹

**Q.** What about the hemoglobin content ([1]; Day 45) of the same substance?
**A.** 13.0 g/dL

**Q.** And the monocytes ([1]; Day 45)?
**A.** 3.4%

**Q.** And the neutrophils ([1]; Day 45)?
**A.** 97%

**Q.** And the platelet count ([1]; Day 45)?
**A.** 313 ×100/μL

**Q.** What about the HCT ([1]; Day 55) of the same substance?
**A.** 41%

**Q.** What about the MCH ([1]; Day 55) of the same substance?
**A.** 22.7 pg

**Q.** What about the MCHC ([1]; Day 55) of the same substance?
**A.** 31.1 g/dL

**Q.** And the MCV ([1]; Day 55)?
**A.** 73 fL

**Q.** And the RBC count ([1]; Day 55)?
**A.** 5.6e+06 µL⁻¹

**Q.** What about the WBC count ([1]; Day 55) of the same substance?
**A.** 15000 µL⁻¹

**Q.** And the hemoglobin content ([1]; Day 55)?
**A.** 12.7 g/dL

**Q.** And the monocytes ([1]; Day 55)?
**A.** 1.6%

**Q.** And the neutrophils ([1]; Day 55)?
**A.** 132%

**Q.** What about the platelet count ([1]; Day 55) of the same substance?
**A.** 360 ×100/μL

**Q.** What about the HCT ([1]; Day-5) of the same substance?
**A.** 44%

**Q.** What about the MCH ([1]; Day-5) of the same substance?
**A.** 22.8 pg

**Q.** And the MCHC ([1]; Day-5)?
**A.** 29.7 g/dL

**Q.** And the MCV ([1]; Day-5)?
**A.** 77 fL

**Q.** What about the RBC count ([1]; Day-5) of the same substance?
**A.** 5.8e+06 µL⁻¹

**Q.** And the WBC count ([1]; Day-5)?
**A.** 11000 µL⁻¹

**Q.** And the hemoglobin content ([1]; Day-5)?
**A.** 13.2 g/dL

**Q.** What about the monocytes ([1]; Day-5) of the same substance?
**A.** 2.0%

**Q.** What about the neutrophils ([1]; Day-5) of the same substance?
**A.** 86%

**Q.** What about the platelet count ([1]; Day-5) of the same substance?
**A.** 463 ×100/μL

**Q.** What about the HCT ([1]; Day-14) of the same substance?
**A.** 41%

**Q.** And the MCH ([1]; Day-14)?
**A.** 23.0 pg

**Q.** And the MCHC ([1]; Day-14)?
**A.** 31.2 g/dL

**Q.** And the MCV ([1]; Day-14)?
**A.** 75 fL

**Q.** And the RBC count ([1]; Day-14)?
**A.** 5.6e+06 µL⁻¹

**Q.** And the WBC count ([1]; Day-14)?
**A.** 11000 µL⁻¹

**Q.** What about the hemoglobin content ([1]; Day-14) of the same substance?
**A.** 13.0 g/dL

**Q.** What about the monocytes ([1]; Day-14) of the same substance?
**A.** 1.3%

**Q.** And the neutrophils ([1]; Day-14)?
**A.** 93%

**Q.** What about the platelet count ([1]; Day-14) of the same substance?
**A.** 411 ×100/μL

**Q.** And the IFN-γ level ([2]; day 55)?
**A.** 176 pg/mL

**Q.** And the IL-1ß level ([2]; day 55)?
**A.** 286 pg/mL

**Q.** And the IL-6 level ([2]; day 55)?
**A.** 2 pg/mL

**Q.** What about the IL-8 level ([2]; day 55) of the same substance?
**A.** 348 pg/mL

**Q.** And the MCP-1 level ([2]; day 55)?
**A.** 474 pg/mL

**Q.** What about the MIP-1ß level ([2]; day 55) of the same substance?
**A.** 53 pg/mL

**Q.** And the MIP-1α level ([2]; day 55)?
**A.** 27 pg/mL

**Q.** And the RANTES level ([2]; day 55)?
**A.** 22656 pg/mL

**Q.** And the TNF-α level ([2]; day 55)?
**A.** 26 pg/mL

**Q.** And the IFN-γ level [2, 3]?
**A.** 1115 pg/mL

**Q.** What about the IL-1ß level [2, 3] of the same substance?
**A.** 271 pg/mL

**Q.** And the IL-6 level [2, 3]?
**A.** 7 pg/mL

**Q.** And the IL-8 level [2, 3]?
**A.** 29 pg/mL

**Q.** And the MCP-1 level [2, 3]?
**A.** 409 pg/mL

**Q.** And the MIP-1ß level [2, 3]?
**A.** 18 pg/mL

**Q.** What about the MIP-1α level [2, 3] of the same substance?
**A.** 20 pg/mL

**Q.** What about the RANTES level [2, 3] of the same substance?
**A.** 1215 pg/mL

**Q.** And the TNF-α level [2, 3]?
**A.** 72 pg/mL
